Columns and labels:
ALS = ALS patients; cited from earlier work
[1] = test system: murine Hb9-GFP+ motor neurons co-cultured with ALS patient-derived iAstrocytes; experiment: ALS patient iAstrocyte / mouse Hb9-GFP+ motor neuron co-culture, motor neuron survival; assay type: cell-based, human iAstrocytes; details: iAstrocytes pre-treated 24 hours with various concentrations; viable motor neurons at 72 h as percentage of 24 h, normalised to DMSO control; FIG. 2
Experimental: ALS iAstrocytes were pre-treated with various concentrations of nilotinib, bafetinib or bosutinib for 24 hours, prior to murine Hb9-GFP motor neuron seeding in co-culture. The number of viable motor neurons was then measured 24 and 72 hours after motor neuron seeding, and the percentage motor neuron survival was calculated, and then normalised to the untreated control of the respective line. *P<0.05, **P<0.01, ***P<0.001. One-way ANOVA with Dunnett's post-hoc test. Data are mean±SD. n=5-6.
This example describes the effect of nilotinib, bafetinib and bosutinib on motor neuron survival in an in vitro model of ALS. This model uses human fibroblast-derived astrocytes and mouse Hb9−GFP+ motor neurons in co-culture (Meyer et al., 2014, PNAS 111, 829-832). The fibroblasts were reprogrammed to induced neural progenitor cells (iNPCs), which were differentiated into Astrocytes. Astrocytes derived from ALS patients cause death of the wild-type Hb9−GFP+ mouse motor neurons in co-culture, a property not seen in astrocytes derived from normal (non-ALS) patients. […]
3,000 human iAstrocytes were seeded per well on fibronectin-coated 384-well plates. […] Hb9− GFP+ motor neurons were imaged after 24 and 72 hours using an INCELL analyser 2000 (GE Healthcare), and the number of viable motor neurons was counted using the INCELL analyser software (GE Healthcare).
The number of viable motor neurons (defined as GFP+ motor neurons with at least 1 axon) 25 that survived after 72 hours in co-culture was calculated as a percentage of the number of viable motor neurons after 24 hours in co-culture. […]

[2] = test system: SOD1^G93A mouse model of ALS; details: cited from earlier work
P-glycoprotein (P-gp) = P-glycoprotein (P-gp) (Homo sapiens, UniProt P08183); details: cited from earlier work
P-glycoprotein (P-gp), sequence (P08183 whole entry): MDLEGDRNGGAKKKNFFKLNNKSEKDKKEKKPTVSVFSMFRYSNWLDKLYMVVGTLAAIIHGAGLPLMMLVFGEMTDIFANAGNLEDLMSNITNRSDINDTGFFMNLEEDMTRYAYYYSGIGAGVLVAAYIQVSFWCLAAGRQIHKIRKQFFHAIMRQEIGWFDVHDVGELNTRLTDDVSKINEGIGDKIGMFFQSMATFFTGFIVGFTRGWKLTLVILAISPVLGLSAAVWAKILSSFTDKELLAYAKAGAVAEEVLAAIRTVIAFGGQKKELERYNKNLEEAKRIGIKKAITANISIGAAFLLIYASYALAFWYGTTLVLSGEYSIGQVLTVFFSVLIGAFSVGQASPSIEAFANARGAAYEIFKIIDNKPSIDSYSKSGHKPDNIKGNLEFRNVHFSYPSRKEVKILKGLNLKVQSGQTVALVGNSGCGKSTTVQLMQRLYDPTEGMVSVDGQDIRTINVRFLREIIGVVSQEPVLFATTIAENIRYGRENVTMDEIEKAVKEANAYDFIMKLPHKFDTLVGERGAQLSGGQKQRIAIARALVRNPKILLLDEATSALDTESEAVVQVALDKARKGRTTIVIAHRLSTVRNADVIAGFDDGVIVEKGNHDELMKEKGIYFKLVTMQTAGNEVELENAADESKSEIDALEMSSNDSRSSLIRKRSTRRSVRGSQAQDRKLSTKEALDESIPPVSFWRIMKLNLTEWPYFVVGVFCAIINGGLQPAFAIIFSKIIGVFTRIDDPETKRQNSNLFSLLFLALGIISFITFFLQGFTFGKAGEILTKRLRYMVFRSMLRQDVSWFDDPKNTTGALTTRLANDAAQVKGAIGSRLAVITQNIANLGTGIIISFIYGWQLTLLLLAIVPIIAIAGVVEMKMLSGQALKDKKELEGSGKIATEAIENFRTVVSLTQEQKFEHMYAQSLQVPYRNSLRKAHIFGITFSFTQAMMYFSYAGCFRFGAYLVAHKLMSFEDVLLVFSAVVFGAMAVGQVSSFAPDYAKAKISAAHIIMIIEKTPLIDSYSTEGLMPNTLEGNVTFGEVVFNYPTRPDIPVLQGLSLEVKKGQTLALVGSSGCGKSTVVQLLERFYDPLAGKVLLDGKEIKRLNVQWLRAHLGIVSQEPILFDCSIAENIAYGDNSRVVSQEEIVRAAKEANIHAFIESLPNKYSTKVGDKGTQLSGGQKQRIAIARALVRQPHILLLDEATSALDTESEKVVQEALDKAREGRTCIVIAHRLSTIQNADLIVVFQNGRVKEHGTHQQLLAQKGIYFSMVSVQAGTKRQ

Nc1nc2ccc(OC(F)(F)F)cc2s1 [Riluzole]
prolongation of life (ALS): 2-3 months

C=CC(=O)Nc1cc2c(Nc3ccc(F)c(Cl)c3)ncnc2cc1OCCCN1CCOCC1 [canertinib]
motor neuron survival [1]: no such increase in survival

C#Cc1cccc(Nc2ncnc3cc(OCCOC)c(OCCOC)cc23)c1 [erlotinib]
lifespan [2]: failed to extend lifespan
penetration into the central nervous system [2]: penetrated into the central nervous system
protection of motor synapses [2]: did not protect motor synapses
symptom delay (disease onset and progression) [2]: modest yet statistically significant symptom delay

Cc1ccc(NC(=O)c2ccc(CN3CCN(C)CC3)cc2)cc1Nc1nc(-c2cccnc2)cs1 [masitinib]
motor neuron survival [1]: no such increase in survival

Cc1cn(-c2cc(NC(=O)c3ccc(C)c(Nc4nccc(-c5cccnc5)n4)c3)cc(C(F)(F)F)c2)cn1 [nilotinib]
motor neuron survival [1]: dose-dependent increase in motor neuron survival
P-glycoprotein substrate (P-glycoprotein (P-gp)): P-glycoprotein (P-gp) substrate
